Results: patent EP0442769A2 (priority 1990, dated 1991)
Like-named read-outs stand apart in the source and are kept apart here.

Legend:
sites opioides de type k = target: T1, sites opioides de type k (Cavia porcellus, UniProt P41144); assay: [3H]diprenorphine competition binding, crude membrane fraction of guinea pig cerebellum; parameters: species or system cobaye; conditions: guinea pig cerebellum membranes; for IC50: [3H]diprenorphine 0,3 nM, 1 h at 25°C, (n) in brackets, read-out: I50κ (concentration inhibitrice 50); for Ki: calculated from the measured CI.50, read-out: KIκ (constante de dissociation apparente du composé testé)
T1 construct: fraction membranaire brute obtenue à partir de tissu frais (cervelet de lapin, cervelet de cobaye); from tissue; host or cells: guinea pig cerebellum (tricolour guinea pigs), crude membrane fraction
Procedure: (§1) Les animaux utilisés sont des lapins néo-zélandais d'environ 1500 g et des cobayes tricolores d'environ 300 g.
(§2) La préparation utilisée est une fraction membranaire brute obtenue à partir de tissu frais (cervelet de lapin, cervelet de cobaye) par une méthode standard d'homogénéisation et de centrifugation différentielle. La suspension finale est en tampon tris-HCl (50 mM, pH 7,4) et contient environ 5 mg de protéine par ml.
(§3) [15,16(n)-³H] diprenorphine à 25-30 CI/mmol (Amersham International plc, Amersham, Angleterre).
(§4) Radioligand (0,3 pmol) de [³H] diprenorphine et fraction membranaire brute (0,25 mg de protéine) sont incubés pendant 1 heure à 25°C dans un volume final de 1,0 ml en tampon Tris-HCl (50 mM, pH 7,4) : • (i) en absence de toute drogue compétitrice , • (ii) en présence de 12 concentrations croissantes de la nouvelle drogue et, • (iii) en présence de 10 µmol/l de diprenorphine non radioactive.
(§5) Le contenu de chaque tube est ensuite rapidement filtré (sous vide) sur disques de fibre de verre (Whatman GF/B) disposés sur un jeu de rampes de filtration Millipore modèle 1225. Les filtres sont rincés avec 2 x 3 ml de tampon froid (O-2°C) puis séchés sous une lampe IR pendant 15 minutes. La radioactivité de chaque filtre, dans 3 ml de cocktail Ready-sol MB (Beckman) est comptée avec un compteur à scintillation liquide Kontron modèle MR 300.
(§6) A partir des paramètres mesurés, il est ensuite calculé les différentes constantes Kx pour les sites considérés.
(§7) Ces valeurs ont été calculées à partir des valeurs mesurées des concentrations CI.50 de drogue inhibant de 50 % la liaison à l'équilibre de (3H) diprenorphine utilisée à la concentration fixe de 0,3 nM.

Stability in fresh serum = format: in vitro ADME; parameters: key to Stabilité dans sérum frais 4°C / Stabilité dans sérum frais 37°C: + : stable.; *a: * : stabilité dans le sérum frais à 37°C au bout de 24h : on ne retrouve que 8 à 12%, 78% et 65% de la quantité de départ dans le sérum respectivement pour (a), (b) et (c).; *b: * : stabilité dans le sérum frais à 37°C au bout de 24h : on ne retrouve que 8 à 12%, 78% et 65% de la quantité de départ dans le sérum respectivement pour (a), (b) et (c).; *c: * : stabilité dans le sérum frais à 37°C au bout de 24h : on ne retrouve que 8 à 12%, 78% et 65% de la quantité de départ dans le sérum respectivement pour (a), (b) et (c); conditions: for Stabilité dans sérum frais 37°C / remaining at 24 h: * = fraction of starting quantity found after 24h, 37°C; for remaining at 24 h: read-out: Stabilité dans sérum frais 37°C
Excerpt: (§8) Ces composés ont été également testés pour leur absorption membranaire et stabilité érythrocitaire et plasmatique.

membrane érythrocytaire = assay: Membrane adsorption at haematocrit 45%; format: in vitro ADME
Excerpt: as §8

GR chargés = assay: Extracellular leak from loaded red blood cells, 24 h incubation; format: in vitro ADME
Excerpt: as §8

Stability in haemolysate = format: in vitro ADME; parameters: key: + : stable.; *a: * : stabilité dans le sérum frais à 37°C au bout de 24h : on ne retrouve que 8 à 12%, 78% et 65% de la quantité de départ dans le sérum respectivement pour (a), (b) et (c).; *b: * : stabilité dans le sérum frais à 37°C au bout de 24h : on ne retrouve que 8 à 12%, 78% et 65% de la quantité de départ dans le sérum respectivement pour (a), (b) et (c).; *c: * : stabilité dans le sérum frais à 37°C au bout de 24h : on ne retrouve que 8 à 12%, 78% et 65% de la quantité de départ dans le sérum respectivement pour (a), (b) et (c)
Excerpt: as §8

sites opioides de type µ = target: T2, sites opioides de type µ (Oryctolagus cuniculus, UniProt G1TAQ8); assay: [3H]diprenorphine competition binding, crude membrane fraction of rabbit cerebellum; parameters: species or system lapin
T2 construct: fraction membranaire brute obtenue à partir de tissu frais (cervelet de lapin, cervelet de cobaye); from tissue; host or cells: rabbit cerebellum (New Zealand rabbits), crude membrane fraction
Procedure: as §1, §2, §3, §4, §5, §6, §7

[1] = [3H]diprenorphine 0,3 nM, rabbit cerebellum membranes, 1 h at 25°C, (n) in brackets, read-out: I50µ (concentration inhibitrice 50)
[2] = calculated from the measured CI.50, rabbit cerebellum membranes, read-out: KIµ (constante de dissociation apparente du composé testé)

SMILES | IC50 (sites opioides de type k) | Ki (sites opioides de type k) | Stabilité dans sérum frais 4°C (Stability in fresh serum) | Stabilité dans sérum frais 37°C (Stability in fresh serum) | Adsorption membranaire à Hte 45% (membrane érythrocytaire) | GR chargés : Incubation 24h Fuite extra-cellulaire 4°C (GR chargés) | GR chargés : Incubation 24h Fuite extra-cellulaire 37°C (GR chargés) | Stabilité dans hémolysat 4°C (Stability in haemolysate) | Stabilité dans hémolysat 37°C (Stability in haemolysate) | IC50 (sites opioides de type µ; [1]) | Ki (sites opioides de type µ; [2]) | IC50 (sites opioides de type µ) | Ki (sites opioides de type µ) | remaining at 24 h (Stability in fresh serum) | affinité apparente pour les sites opioïdes µ (sites opioides de type µ; result in words)
COP(=O)(O)Oc1ccc2c3c1O[C@H]1C(=O)CC[C@@]4(O)[C@@H](C2)N(CC2CC2)CC[C@]314 [naltrexone-3-phosphate(OMe)] | 270 ± 35 nM | 68 nM | + | + | 10% | 5% | 40% | + | + | 130 ± 9 nM | 33 nM |  |  |  | 
C=CCN1CC[C@]23c4c5ccc(OP(=O)(O)OC)c4O[C@H]2C(=O)CC[C@@]3(O)[C@H]1C5 [naloxone-3-phosphate(OMe)] |  |  | + | + | 10% | 6% | 40% | + | + | 1200 nM | 260 nM |  |  |  | 
O=C1CC[C@@]2(O)[C@H]3Cc4ccc(O)c5c4[C@@]2(CCN3CC2CC2)[C@H]1O5 [naltrexone, reference compound] |  |  |  |  |  |  |  |  |  |  |  | 1.2 ± 0.2 nM | 0.3 nM |  | 
O=C1CC[C@@]2(OS(=O)(=O)O)[C@H]3Cc4ccc(OS(=O)(=O)O)c5c4[C@@]2(CCN3CC2CC2)[C@H]1O5 [naltrexone-3,14-disulfate] | 39000 nM | 9700 nM | + | + | 40% | 15% | 70% | + | + | 7850 nM | 1960 nM |  |  |  | 
O=C1CC[C@@]2(O)[C@H]3Cc4ccc(OP(=O)(O)OP(=O)(O)OP(=O)(O)O)c5c4[C@@]2(CCN3CC2CC2)[C@H]1O5 [naltrexone-3-triphosphate] | 15 ± 1.4 nM | 3.8 nM | + |  | 22% | 0% | 0% | + | + | 5.2 ± 0.4 nM | 1.3 nM |  |  | 65% | 
O=C1CC[C@@]2(O)[C@H]3Cc4ccc(OP(=O)(O)O)c5c4[C@@]2(CCN3CC2CC2)[C@H]1O5 [naltrexone-3-phosphate] | 30 ± 3 nM | 7.5 nM | + |  | 22% | 1% | 12% | + | + | 22 ± 2 nM | 5.6 nM |  |  | 8 to 12% | 
C=CCN1CC[C@]23c4c5ccc(OP(=O)(O)OP(=O)(O)OP(=O)(O)O)c4O[C@H]2C(=O)CC[C@@]3(O)[C@H]1C5 [naloxone-3-triphopshate] | 106 ± 15 nM | 27 nM | + |  | 22% | 0% | 0% | + | + | 21 ± 2 nM | 5.2 nM |  |  | 78% | 
C=CCN1CC[C@]23c4c5ccc(OS(=O)(=O)O)c4O[C@H]2C(=O)CC[C@@]3(O)[C@H]1C5 [naloxone-3-sulfate] |  |  |  |  |  |  |  |  |  | 4300 nM | 1070 nM |  |  |  | 
O=C1CC[C@@]2(O)[C@H]3Cc4ccc(OS(=O)(=O)O)c5c4[C@@]2(CCN3CC2CC2)[C@H]1O5 [naltrexone-3-sulfate] | 2200 nM | 550 nM |  |  |  |  |  |  |  | 1540 nM | 385 nM |  |  |  | 
C=CCN1CC[C@]23c4c5ccc(OS(=O)(=O)O)c4O[C@H]2C(=O)CC[C@@]3(OS(=O)(=O)O)[C@H]1C5 [naloxone-3,14-disulfate] | > 100000 nM | > 25000 nM | + | + | 34% | 5% | 50% | + | + | 20800 nM | 5200 nM |  |  |  | 
C=CCN1CC[C@]23c4c5ccc(OP(=O)(O)O)c4O[C@H]2C(=O)CC[C@@]3(O)[C@H]1C5 [naloxone-3-phosphate] |  |  | + | + | 0% | 1% | 12% | + | + | 3.5 ± 0.3 nM | 0.9 nM |  |  |  | activité légèrement plus élevée que la naloxone
